How the values were obtained:
[1] = biological target: T1, MAGL (Mus musculus, UniProt O35678); assay: Drug occupancy study by PET with [^18F]-II; assay type: in vivo
T1 sequence (O35678 1-303): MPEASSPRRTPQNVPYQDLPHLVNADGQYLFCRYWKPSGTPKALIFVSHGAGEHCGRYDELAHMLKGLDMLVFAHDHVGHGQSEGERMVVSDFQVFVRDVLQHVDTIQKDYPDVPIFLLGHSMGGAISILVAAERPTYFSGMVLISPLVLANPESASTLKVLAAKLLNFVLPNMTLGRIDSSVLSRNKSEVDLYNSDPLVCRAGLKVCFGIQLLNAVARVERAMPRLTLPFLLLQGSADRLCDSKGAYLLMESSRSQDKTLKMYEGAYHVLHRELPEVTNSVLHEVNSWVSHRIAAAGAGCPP
Procedure: To investigate the utility of [^18F]-II, a drug occupancy study was conducted after validating the in vitro/vivo specificity. The potent and selective covalent MAGL inhibitor PF-06795071, originally developed for anti-inflammatory treatments, was applied for this study (McAllister LA, Butler C R, Mente S, et al. Discovery of Trifluoromethyl Glycol Carbamates as Potent and Selective Covalent Monoacylglycerol Lipase (MAGL) Inhibitors for Treatment of Neuroinflammation. J Med Chem. 2018;61:3008-3026). PF-06795071 was prepared as a transparent solution in a vehicle of DMSO/Cremophor/saline (v/v/v=5/5/90). The animal was treated with escalating doses of PF-06795071 (0.002, 0.01, 0.05, 0.2 and 2 mg/kg) 1 hour prior to the administration of [^18F]-II (4.15-11.13 MBq, 6.84-13.19 nmol/kg). The in vivo PET scans and data reconstruction were carried out as described in Example 9. The SUVs from the whole brain TACs was averaged from 0-90 min to obtain SUV0-90 min in receptor occupancy study as previously detailed by Krämer et al. (Krämer SD, Betzel T, Mu L, et al. Evaluation of ^11C-Me-NB1 as a Potential PET Radioligand for Measuring GluN2B-Containing NMDA Receptors, Drug Occupancy, and Receptor Cross Talk. J Nucl Med. 2018;59:698-703). The non-linear curve was fitted with GraphPad Prism Software (version 8.3.4, GraphPad Software Inc) for D50 value.

[2] = system: MAGL; assay: In vivo PET scans in MAGL KO and WT mice; conditions: mouse brain, at 1 min p.i., intravenous
Procedure: The animal was anesthetized using isoflurane and placed in the PET/CT scanner (Super Argus, Sedecal, Madrid, Spain). The radiotracer was injected intravenously, and data was acquired at 1 min post-injection. The dynamic PET scan lasted 60 min for [^11C]-I, while it's prolonged to 90 min for [^18F]-II and [^18F]-III. […] The regions of interest (ROI) were defined on an MRI T2 (W.Schiffer) template provided by PMOD v4.002 (PMOD Technologies, Zurich, Switzerland) to generate the corresponding time acitivity curves (TACs). The radioactivity accumulations in the whole brain and different regions were expressed as standardized uptake values (SUVs), which is the decay-corrected regional radioactivity normalized to the injected radioactivity and body weight.

[3] = biological target: T2, MAGL (Homo sapiens, UniProt Q99685); assay: 2-AG assay, MAGL inhibitory activity (human); assay type: biochemical
T2 sequence (Q99685 1-303): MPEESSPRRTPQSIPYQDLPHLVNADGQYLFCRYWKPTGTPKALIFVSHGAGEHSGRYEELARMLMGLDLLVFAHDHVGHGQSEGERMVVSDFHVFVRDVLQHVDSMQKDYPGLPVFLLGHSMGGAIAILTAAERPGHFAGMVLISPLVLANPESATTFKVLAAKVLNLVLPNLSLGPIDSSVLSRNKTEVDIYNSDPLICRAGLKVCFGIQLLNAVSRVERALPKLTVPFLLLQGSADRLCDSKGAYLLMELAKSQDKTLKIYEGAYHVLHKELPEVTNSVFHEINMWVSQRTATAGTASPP
Procedure: (§1) Compounds were profiled for MAGL inhibitory activity by determining the enzymatic activity by following the hydrolysis of the natural substrate, 2-arachidonoylglycerol, resulting in arachidonic acid, which can be followed by mass spectrometry. This assay is hereinafter abbreviated “2-AG assay”.
(§2) A C18 SPE cartridge (G9205A) was used in an acetonitrile/water liquid setup. […] The activity of the compounds was calculated based on the ratio of intensities [arachidonic acid/d8-arachidonic acid].

[4] = biological target: T1, MAGL; assay: 2-AG assay, MAGL inhibitory activity (mouse); assay type: biochemical
Procedure: as §1, §2

[5] = system: MAGL; conditions: reported in Hattori et al., J Med Chem 2019; cited from earlier work
[6] = system: MAGL
Procedure: Frozen brain tissues of Wistar rats or mouse were cut in the thickness of 10 μm on a cryostat (Cryo-Star HM 560 MV; Microm, Thermo Scientific, Wilmington, DE), and stored at −20° C. before use. Before the experiments, the slices were thawed on ice for 10 min and subsequently immersed into aqueous 50 mM Tris buffer (pH 7.4, 30 mM HEPES, 1.2 mM MgCl2, 110 mM NaCl, 5 mM KCl, 2.5 mM CaCl2) containing 3% fatty acid free bovine serum albumin (BSA) at 0° C. for 10 min for precondition. Upon drying, incubation was carried out in a humidified chamber with the radiotracer at room temperature for 30 min. […] The slices were decanted after incubation, and washing procedure was conducted. The slices were left to dry before attaching to phosphor imager plates (Fuji, Dielsdorf, Switzerland), and exposure was lasted for 60 min. The films were later scanned by BAS5000 reader (Fuji), and data analysis was performed using AIDA 4.50.010 software (Raytest Isotopenmessgerate GmbH, Straubenhardt, Germany).

[7] = biological target: T3, MAGL (Rattus norvegicus, UniProt Q8R431); assay: In vitro autoradiography blockade on rat brain section; assay type: binding; conditions: 10 μM blocker
T3 construct: from tissue; host or cells: Wistar rat brain sections
T3 sequence (Q8R431 1-303): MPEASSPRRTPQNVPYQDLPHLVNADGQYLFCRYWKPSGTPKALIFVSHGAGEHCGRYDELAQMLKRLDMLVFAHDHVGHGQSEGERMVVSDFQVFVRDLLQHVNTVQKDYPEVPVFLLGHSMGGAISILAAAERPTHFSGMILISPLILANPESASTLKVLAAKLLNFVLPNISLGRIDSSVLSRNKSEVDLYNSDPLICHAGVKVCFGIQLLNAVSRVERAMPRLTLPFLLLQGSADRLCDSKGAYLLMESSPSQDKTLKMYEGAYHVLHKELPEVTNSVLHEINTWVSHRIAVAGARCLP

For `O=C(O[C@H](CO)C(F)(F)F)N1C[C@@H]2C(c3ccn(-c4ccc(F)cc4)n3)[C@@H]2C1` (stereo partly shown) [PF-06795071], the “effect on [^18F]-II accumulation in the mouse brain” value ([1]; 0.002 to 2 mg/kg) was “dose-dependent reduction” and the “required dose to occupy 50% MAGL in the mouse brain (D50)” value ([1]; given 1 hour prior to [^18F]-II, SUV0-90 min whole brain) was 0.034 mg/kg.
With `O=C(c1ccco1)N1CCN([C@@H]2CC(=O)N(c3ccc(-c4cccc([18F])c4)cc3)C2)CC1` [[^18F]-III] the “SUVmax (brain uptake)” value [2] was about 1.63.
With `O=C(c1ccco1)N1CCN([C@@H]2CC(=O)N(c3ccc(-c4ccc([18F])cc4)cc3)C2)CC1` [[^18F]-II] the “SUVmax (brain uptake)” value [2] was about 1.56.
In the case of `O=C(c1ccco1)N1CCN([C@@H]2CC(=O)N(c3ccc(-c4cccc(F)c4)cc3)C2)CC1` [III, (R)-1-(3′-Fluoro-[1,1′-biphenyl]-4-yl)-4-(4-(furan-2-carbonyl)piperazin-1-yl)pyrrolidin-2-one], the IC50 [3] is reported as 11.5 nM and the IC50 [4] is reported as 11.3 nM.
For `Cc1ccnc([18F])c1-c1cccc(N2C[C@H](N3CCN(C(=O)c4nccs4)CC3)CC2=O)c1` [[^18F]T-401, (4R)-1-{3-[2-(^18F)Fluoro-4-methylpyridin-3-yl]phenyl}-4-[4-(1,3-thiazol-2-ylcarbonyl)piperazin-1-yl]pyrrolidin-2-one], the “SUVmax (brain uptake), literature” value [5] is listed as about 0.7.
For `[11CH3]Oc1cccc(-c2ccc(N3C[C@H](N4CCN(C(=O)c5ccco5)CC4)CC3=O)cc2)c1` [[^11C]-I, (R)-4-(4-(furan-2-carbonyl)piperazin-1-yl)-1-(3′-(methoxy-^11C)-[1,1′-biphenyl]-4-yl)pyrrolidin-2-one], the “SUVmax (brain uptake)” value [2] was about 1.32, the “specificity and selectivity in vitro” value ([6]; autoradiography, blockade and MAGL KO brain section) was “high specificity and selectivity” and the “distribution of radioactive signal accumulation on brain slices” value ([6]; ~1 nM radiotracer, mouse or rat brain slice) was “heterogeneous distribution of radioactive signal accumulation, which matched to the MAGL expression pattern in rodents”.
Compound `COc1cccc(-c2ccc(N3C[C@H](N4CCN(C(=O)c5ccco5)CC4)CC3=O)cc2)c1` [I, (R)-4-(4-(Furan-2-carbonyl)piperazin-1-yl)-1-(3′-methoxy-[1,1′-biphenyl]-4-yl)pyrrolidin-2-one] has an IC50 [3] of 6.5 nM and an IC50 [4] of 4.3 nM.
With `O=C(OC(C(F)(F)F)C(F)(F)F)N1CCC(CNS(=O)(=O)c2ccc(Cl)cc2)CC1` [SAR127303] the “blockade of specific binding of [^11C]-I” value [7] was “substantial reduction and homogenous distribution of the radioactivity”.

— patent publication US20240270725A1, “MAGL INHIBITORS” (Hoffmann-La Roche Inc., priority 2021, published 2024)
